How the values were obtained:
[1] = organism: Homo sapiens; assay: Selectivity for CB1 receptor over CB2 receptor
[2] = target: Cannabinoid receptor 2 (Homo sapiens) (UniProt P34972); assay: Binding affinity to CB2 receptor
[3] = in vivo; conditions: rat, plasma, po, 10 mg/kg
Description: AUC in rat at 10 mg/kg, po after 6 hrs

Cannabinoid receptor 2 (Homo sapiens), sequence (P34972 whole entry, looked up): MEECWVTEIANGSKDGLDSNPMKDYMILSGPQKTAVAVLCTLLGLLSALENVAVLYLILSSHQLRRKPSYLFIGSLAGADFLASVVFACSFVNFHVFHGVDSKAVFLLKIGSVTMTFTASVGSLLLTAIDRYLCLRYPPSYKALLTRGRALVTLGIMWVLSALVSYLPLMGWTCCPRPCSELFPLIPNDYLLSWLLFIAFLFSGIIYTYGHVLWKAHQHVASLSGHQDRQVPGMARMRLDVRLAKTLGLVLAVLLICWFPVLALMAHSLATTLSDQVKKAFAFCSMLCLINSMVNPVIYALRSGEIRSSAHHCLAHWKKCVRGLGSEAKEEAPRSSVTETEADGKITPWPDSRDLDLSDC

Structure (SMILES)	Ratio Ki [1]	Ki [2] [nM]	AUC at 6 h [3] [µM·h]
C[C@H](NS(=O)(=O)C(F)(F)F)c1ccc(S(=O)(=O)c2ccc(OC(F)(F)F)cc2S(=O)(=O)c2ccccc2F)cc1	525		
CC(=O)N[C@@H](C)c1ccc(S(=O)(=O)c2ccc(Cl)cc2S(=O)(=O)c2ccccc2F)cc1	250	60.7	
C[C@H](NCCC(F)(F)F)c1ccc(S(=O)(=O)c2ccc(Cl)cc2S(=O)(=O)c2ccccc2F)cc1	105		
C[C@H](NS(C)(=O)=O)c1ccc(S(=O)(=O)c2ccc(Cl)cc2S(=O)(=O)c2cccc3cccnc23)cc1	31		
CNc1cccc(F)c1S(=O)(=O)c1cc(Cl)ccc1S(=O)(=O)c1ccc([C@H](C)NS(=O)(=O)C(F)(F)F)cc1	212		
C[C@H](NS(=O)(=O)C(F)(F)F)c1ccc(S(=O)(=O)c2ccc(Cl)cc2S(=O)(=O)c2c(N)cccc2F)cc1	1190		
Cc1occc1S(=O)(=O)c1cc(Cl)ccc1S(=O)(=O)c1ccc([C@H](C)NS(C)(=O)=O)cc1	538	129	
C[C@H](NS(C)(=O)=O)c1ccc(S(=O)(=O)c2ccc(Cl)cc2S(=O)(=O)C2CCCCC2)cc1	345	8.9	
C[C@H](NS(=O)(=O)C(F)(F)F)c1ccc(S(=O)(=O)c2ccc(Cl)cc2S(=O)(=O)N2CCCCC2)cc1	231	58	
C[C@H](NS(=O)(=O)C(F)(F)F)c1ccc(S(=O)(=O)c2ccc(Cl)cc2S(=O)(=O)c2c(F)cccc2N2CCOCC2)cc1	18		
C[C@H](NS(=O)(=O)C(F)(F)F)c1ccc(S(=O)(=O)c2ccccc2S(=O)(=O)c2ccccc2F)cc1	426		
CCCS(=O)(=O)c1cc(Cl)ccc1S(=O)(=O)c1ccc([C@H](C)NS(C)(=O)=O)cc1	57		
C[C@H](NCC(F)(F)F)c1ccc(S(=O)(=O)c2ccc(Cl)cc2S(=O)(=O)c2ccccc2F)cc1	325		
C[C@H](NS(C)(=O)=O)c1ccc(S(=O)(=O)c2ccc(Cl)cc2S(=O)(=O)N(C)C)cc1	58		
C[C@H](NS(=O)(=O)C(F)(F)F)c1ccc(S(=O)(=O)c2ccc(Cl)cc2S(=O)(=O)N2CCOCC2)cc1	99	192	
C[C@H](NS(=O)(=O)C(F)(F)F)c1ccc(S(=O)(=O)c2ccc(NC3CC3)cc2S(=O)(=O)c2ccccc2F)cc1	66	4.9	
CCOc1ccc(S(=O)(=O)c2ccc([C@H](C)NS(=O)(=O)C(F)(F)F)cc2)c(S(=O)(=O)c2ccccc2F)c1	1960	0.9	
C[C@H](NS(=O)(=O)C(F)(F)F)c1ccc(S(=O)(=O)c2ccc(C(F)(F)F)cc2S(=O)(=O)c2ccccc2F)cc1	2080		
C[C@H](NS(=O)(=O)C(F)(F)F)c1ccc(S(=O)(=O)c2ccc(C3CC3)cc2S(=O)(=O)c2ccccc2F)cc1	2240	1.4	

Structure (SMILES)	Ratio Ki [1]	Ki [2] [nM]	AUC at 6 h [3] [µM·h]
C[C@H](NS(C)(=O)=O)c1ccc(S(=O)(=O)c2ccc(Cl)cc2S(=O)(=O)NS(C)(=O)=O)cc1	36	2750	
C[C@H](NS(=O)(=O)C(F)(F)F)c1ccc(S(=O)(=O)c2ccc(Cl)cc2S(=O)(=O)NC(C)(C)C)cc1	123	136	
C[C@H](NS(=O)(=O)C(F)(F)F)c1ccc(S(=O)(=O)c2ccc(Cl)cc2S(=O)(=O)c2c(F)cccc2F)cc1	642	5.8	
C[C@H](NS(=O)(=O)C(F)(F)F)c1ccc(S(=O)(=O)c2ccc(N3CCNCC3)cc2S(=O)(=O)c2ccccc2F)cc1	31		
Cc1ccc(S(=O)(=O)c2ccc([C@H](C)NS(=O)(=O)C(F)(F)F)cc2)c(S(=O)(=O)c2ccccc2F)c1	2290	1.1	
C[C@H](NS(=O)(=O)C(F)(F)F)c1ccc(S(=O)(=O)c2ccc(Cl)cc2S(=O)(=O)c2c(F)cccc2N(C)C)cc1	60	115	
C[C@H](NS(=O)(=O)C(F)(F)F)c1ccc(S(=O)(=O)c2ccc(Cl)cc2S(=O)(=O)c2c(F)cccc2NC2CC2)cc1	688	14.4	
CNS(=O)(=O)c1cc(Cl)ccc1S(=O)(=O)c1ccc([C@H](C)NS(C)(=O)=O)cc1	64		
COCCOc1ccc(S(=O)(=O)c2ccc([C@H](C)NS(=O)(=O)C(F)(F)F)cc2)c(S(=O)(=O)c2ccccc2F)c1	1600	2.5	
C[C@H](NC(=O)C(F)(F)F)c1ccc(S(=O)(=O)c2ccc(Cl)cc2S(=O)(=O)c2ccccc2F)cc1	784		
C[C@H](NS(C)(=O)=O)c1ccc(S(=O)(=O)c2ccc(Cl)cc2S(=O)(=O)c2ccccn2)cc1	4400		
C[C@H](N)c1ccc(S(=O)(=O)c2ccc(Cl)cc2S(=O)(=O)c2ccccc2F)cc1	14		
C[C@H](NS(C)(=O)=O)c1ccc(S(=O)(=O)c2ccc(Cl)cc2S(=O)(=O)c2cccc[n+]2[O-])cc1	840		
CCNC(=O)N[C@@H](C)c1ccc(S(=O)(=O)c2ccc(Cl)cc2S(=O)(=O)c2ccccc2F)cc1		> 10000	
C[C@H](NS(=O)(=O)C(F)(F)F)c1ccc(S(=O)(=O)c2ccc(O)cc2S(=O)(=O)c2ccccc2F)cc1	1570		
C[C@H](NS(C)(=O)=O)c1ccc(S(=O)(=O)c2ccc(Cl)cc2S(=O)(=O)c2ccccc2F)cc1	4390		6.33
C[C@H](NS(=O)(=O)C(F)(F)F)c1ccc(S(=O)(=O)c2ccc(Cl)cc2S(=O)(=O)c2ncccn2)cc1	859	21	
C[C@H](NS(=O)(=O)C(F)(F)F)c1ccc(S(=O)(=O)c2ccc(N)cc2S(=O)(=O)c2ccccc2F)cc1	170		
C[C@H](NS(=O)(=O)C(F)(F)F)c1ccc(S(=O)(=O)c2ccc(Cl)cc2S(=O)(=O)c2ccccn2)cc1	1150	3.6	

Source: ChEMBL document CHEMBL1139959, “Optimization of triaryl bis-sulfones as cannabinoid-2 receptor ligands” (Bioorg Med Chem Lett, 2007)
